The source of these data is a melting point compilation (Tetko et al.; mined from patent text by program, amines drawn as free bases though some values may be those of a salt).

`CCC1(c2ccccc2)Cc2cc(OC)c(Cl)c(Cl)c2C1=O` (stereo not drawn): the melting point was 139 to 141 °C. To `CCc1nc2c(N)nc3cc(OCCN(C(N)=O)C(C)C)ccc3c2n1CC1CCOCC1` belongs 223 to 225 °C. The result for `NNC(=O)Cn1c(=S)sc2ccccc21` reads 214 to 215 °C. The result for `C[C@@H](COc1ccc(N2CCN(c3ccncc3)CC2)cc1)CC(=O)OC(C)(C)C` reads 112 to 113 °C; that for `CC(C)(C)OC(=O)NNc1ccc(N)cn1`, 140 to 142 °C.

In turn, `CCOC(=O)[C@@H](NC(=O)c1cc(-c2ncc(C(F)(F)F)cc2Cl)ccc1Cl)C(C)C` gave a melting point of 90 to 92 °C. As to `Cc1ccc2c(N3CCN(C)C3=O)ccnc2c1NC(=O)c1c(Cl)cccc1Cl`, the melting point was > 250 °C. As for `CCOC(=O)CCC(C)C1CC=C2C3=C(CCC21C)C1(C)CCC(O)C(C)(C)C1CC3` (stereo not drawn), the melting point lay in the range of 122 to 124 °C. The result for `O=C(NC1CCOCC1)c1cccc(-c2cccc3oc(Cc4cccc(C(F)(F)F)c4)cc23)c1` reads 107 to 108 °C. In turn, `Cc1cc2c(o1)c(-c1ccc(COC(=O)CCC(=O)O)o1)nn2Cc1ccccc1` came in with a melting point of 126 to 129 °C. The result for `CC(=O)N(C)Cc1ccc(OCc2ccc(F)cc2)cc1` reads 82 to 83 °C; that for `c1ccc(C2=N[C@@H](c3ccccc3)[C@H](N3CCOCC3)S2)cc1` (relative stereo), 92 to 94 °C; that for `C[C@]12CCC(=O)N[C@@H]1CCc1cc(Sc3cccc(F)c3)ccc12`, 154 to 156 °C.

`CCOC(=O)c1cn(CC)c2oc(CN3CCOCC3)cc2c1=O` gave a melting point of 229 to 231 °C. The result for `CCOCc1nc2c(N)nc(C)c(C)c2n1CCCNC(C)=O` reads 162 °C; that for `COC(=O)COc1ccc(CCCOS(C)(=O)=O)cc1`, 49 to 51 °C. The result for `Cc1nn(C)c2c1N(C(=O)CN(C)C)c1ccccc1NC2=O` reads 178 to 179 °C; that for `O=C(O)c1cn2c3c(c(N4CCNCC4)ccc3c1=O)CCC2`, 267 to 268 °C; that for `C=CCN(CC=C)Cc1noc(-c2ncn3c2[C@@H]2CCN2C(=O)c2c-3ccc(F)c2Cl)n1`, 127 °C.

Regarding `COc1ccc(NS(=O)(=O)c2ccc(OC)c3c2c2ccccc2n3C=O)cc1`, the melting point lay within 190 to 192 °C. To `CC(=O)Oc1ccccc1C(=O)OCCSS(C)(=O)=O` belongs 90 to 91 °C; to `Cc1ccc(S(=O)(=O)N2CCCC2C(=O)OC2c3cc(C#N)ccc3OC(C)(C)C2Br)cc1` (stereo not drawn), 162 to 169 °C; to `O=C(O)Cn1c(=O)c2cc(Cl)ccc2n(Cc2ccc(F)cc2)c1=O`, 211 to 212 °C. To `O=C(c1ccccc1)N1CCCC1c1cccc(O)c1` (stereo not drawn) belongs 167 to 169 °C. The result for `CCC(=O)c1ncn2c1CN(C)C(=O)c1ccccc1-2` reads 215 to 216 °C.

Compound `Cc1c2c(cc3ccc(=O)oc13)C=CC(C)(C)O2` yielded a melting point of 105 to 107 °C. The result for `COc1cc2c(c3c1OC(C)(C)C3)C(c1cccc(-c3cncnc3)c1)=NC(C)(C)C2` reads 141 to 143 °C; that for `O[C@@H]1C=C[C@H](COC(c2ccccc2)(c2ccccc2)c2ccccc2)C1` (relative stereo), 94 to 96 °C. For `CCCCCCCCCCCc1ncc(C(=O)O)s1`, the melting point amounted to 93 °C.

Turning to `COc1cc2c(cc1Cl)NC(=O)C2=NNc1ccc(S(N)(=O)=O)cc1`, the melting point was > 250 °C. To `O=C(NCc1ccccn1)Nc1cc(N2CC(c3ccc(F)cc3)CC2=O)ccn1` (stereo not drawn) belongs 153 to 155 °C; to `COc1cccc(-c2ccc3c(c2)NC(=O)OC3(C)C)c1`, 167 to 168 °C; to `O=C1NC(=O)c2c1c(-c1c(Cl)cccc1Cl)cc1c2c2cc(O)ccc2n1CCCBr`, 273 to 276 °C. The result for `OCc1ccc(O)c(CO)c1CNCCCCCCOCCc1ccco1` reads 91 to 93 °C. The result for `CC(=O)Oc1ccccc1CC1CNC(=O)O1` (stereo not drawn) reads 98 to 99 °C; that for `Cc1ccc(C)n1C1=CC2=C(CC1)CCc1[nH]c(=O)c(=O)[nH]c12`, > 265 °C. `O=C(c1c[nH]c(C(=O)CCl)c1)c1ccc2ccccc2c1`: the melting point fell in the range of 175 to 177 °C. Regarding `C=C(C(=O)c1ccc(C=CC(=O)O)cc1)c1c(F)c(F)c(F)c(F)c1F`, the melting point was 214 to 217 °C. To `CCCNC(=O)c1nc(-c2ccccc2)c(-c2ccc(=O)n(Cc3ccccc3)n2)s1` belongs 120 to 121 °C. The result for `CCOC(=O)c1c(Cl)nc(-c2ccc(N)cc2)c(N)c1C(=O)OCC` reads 137 °C; that for `CCCCCCCCCCCCSC(=O)CS(=O)(=O)Nc1c(OC)cc(OC)cc1OC`, 90 to 93 °C; that for `O=[N+]([O-])c1cccc(Cn2c(-c3ccc4c(c3)OCO4)nc3ccccc32)c1`, 70.2 to 73 °C. The result for `COCCOCc1nn(C)c2c1N=C(c1ccc(-n3c(C)nc4cnccc43)cc1)CC(=O)N2C` reads 142 to 144 °C; that for `COc1ccc(S(=O)(=O)n2c(CCCC(=O)O)cc3nc(Cl)ccc32)cc1`, 189 °C; that for `OCc1cc2ccnc(Cl)c2[nH]1`, 185 to 187 °C. Regarding `Cc1cc2c(-c3cccc(/C=C/C=O)c3)c(CC(=O)Nc3ccc(F)cc3C(F)(F)F)c(=O)oc2cc1Cl`, the melting point lay in the range of 232 to 235 °C. The result for `Cn1nc(CNC(=O)c2ccccc2)nc1NCCCOc1cccc(CN2CCCCC2)c1` reads 70 °C. `CN1C(=O)CCC(C)(C)c2cc([N+](=O)[O-])ccc21` had a melting point of 115 °C. To `CC(=O)OC[C@H]1OCC(=NO)[C@@H](OC(C)=O)[C@@H]1OC(C)=O` belongs 90 to 92 °C. The result for `FC(F)(F)c1ccc2sc(CCl)nc2c1` reads 52 °C. The result for `CCOC(=O)Nc1c(F)cc(Cl)c2nc(C(C)(C)C)oc12` reads 127 to 129 °C; that for `CCOC(=O)C1=C(N)N=C(OCC)C(C(=O)OCC)C1c1cccc(C#N)c1` (stereo not drawn), 159 °C. In turn, `O=C(Nc1ccc(N2CCCCC2)cc1)N(C[C@@H]1CCC[C@H](CN(C(=O)Nc2ccc(N3CCCCC3)cc2)C2CCCCC2)C1)C1CCCCC1` came in with a melting point of 174 to 178 °C. To `O=C1CCc2c(Br)cc(F)cc21` belongs 129 to 131 °C; to `Brc1ccc(OCc2ccccn2)cc1/C=C/c1cc(/C=C/c2ccc3cc[nH]c3c2)[nH]n1`, 100 to 106 °C.

For the compound `COCCOc1ccc(C#CC2(O)CN3CCC2CC3)c(CO)c1` (stereo not drawn), the melting point lay within 98.5 to 100 °C. The result for `CCCNc1nc(N)c2ncn(C3C=CCCC3)c2n1` (stereo not drawn) reads 73 to 80 °C; that for `N#Cc1c(-c2ccc(N)cc2)cc(-c2ccccc2O)nc1NC(=O)c1cccs1`, 292 to 293 °C. `Cc1sc2c(c1C(=O)c1ccc(N(C)C)cc1)CCC2C(=O)O` (stereo not drawn) came in with a melting point of 171 to 173 °C. The compound `Cc1nc2ccsc2c(=O)n1-c1ccccc1Cl` had a melting point of 118 to 121 °C.

As to `COC(=O)C=C1C[N+]([O-])=C(c2ccccc2)c2cc(Cl)ccc2N1`, the melting point lay within 215 to 216 °C. The result for `NC(CS(=O)(=O)c1ccccc1)=NNC(=O)c1cc2ccccc2o1` reads 205 to 220 °C; that for `CC(C(=O)O)c1ccc(O)c(N)c1` (stereo not drawn), 162 °C.
